Experimental findings from US20220040335A1, “RADIOLABELED PABA AND DERIVATIVES THEREOF FOR USE AS FUNCTIONAL RENAL IMAGING AGENTS” (priority 2018, published 2022) are described below.

Each structure is given as a SMILES string. “Also recorded” adds a separate entry of the source.

This data set is described as follows: Dynamic PET/CT renal imaging (renogram) after intravenous injection in healthy rats. The format is in vivo, Wistar rats. How it is done:
Methods for renal imaging: ^11C-PABA was synthesized using cGMP conditions at the JHU PET Center. Four female healthy Wistar rats (250-275 g of bodyweight) were injected with 30.5±10.3 MBq of ^11C-PABA through a tail-vein catheter and a dynamic PET scan was performed (15 frames×20 seconds, 5 frames×1 minute, 10 frames×5 minutes, total of 60 minutes) using the nanoScan PET/CT (Mediso). Subsequently, CT imaging was performed for anatomical co-registration. As a control, the same rats were also injected intravenously with 18.5 MBq of ^99mTc-MAG3 (Cardinal Health) and scanned using planar scintigraphy with the nanoSPECT/CT (Nanoscan). The images were analyzed with VivoQuant 3.0 (Invicro) and regions of interest were drawn using the CT as reference.

[1] abbreviates: representative healthy rat, FIG. 3.

With `Nc1ccc([11C](=O)O)cc1` [^11C-PABA, [Carboxy-11C] 4-Aminobenzoic acid], the “time after injection at which PET/CT signal localized in the right kidney” value (FIG. 4A) was 220 to 240 s. Where the note is “at time-to-peak, healthy rats, FIG. 3”, the “signal in the kidneys compared to liver and spleen” value is 30-40 ×. Further, the “renal clearance / excretion from kidneys (in words)” value (dynamic PET after IV injection, healthy rats, FIG. 2) is “rapid excretion; also recorded: rapid renal clearance; also recorded: rapidly localized in the kidneys”. Besides, the “background accumulation of the tracer in other organs (in words)” value (dynamic PET, healthy rats) is “very low background accumulation”. In addition, the “time-to-peak in time-activity curves” value (kidneys, dynamic PET after IV injection of 30.5±10.3 MBq, healthy female Wistar rats) was found to be 9.5 ± 1.4 min. Under setting [1], the “cortical phase of renogram” value fell in the range of 4.7 to 10 min and the “vascular phase of renogram” value was 0 to 4.7 min.
